# According to patent publication US11045435B2, “Methods for treating ocular diseases” (NATUREWISE BIOTECH & MEDICALS CORPORATION, priority 2016, dated 2021):
# Assays:
# GFAP mRNA = assay: Gene expression of GFAP in retina, quantitative real-time PCR, streptozotocin-induced diabetic retinopathy; type: in vivo, Sprague-Dawley female rats
# Procedure: After a 16-hour fasting, Sprague-Dawley female rats weighing 200-220 g received a single 60 mg/kg intraperitoneal injection of Streptozotocin (STZ; Sigma-Aldrich, St. Louis, Md.) in 10 mM sodium citrate buffer (pH 4.5; Sigma-Aldrich, St. Louis, Md.). Control rats were fasted and received the buffer solution alone. Rats with blood glucose levels higher than 375 mg/dL 7 days after receiving STZ were considered to be diabetic. Diabetic rats were treated with 1% COMPOUND I, 0.5% COMPOUND I or vehicle eye drops 3 time a day for 6 weeks.
# After rat were sacrificed as described previously, the eyes were enucleated and bisected, and the retinas were peeled from the eyecups and immediately homogenized in RNA isolation agent (RNeasy®Plus Mini Kit, Qiagen, Valencia, Calif.). The first-strand cDNA was prepared from the mRNA by using the commercial kit in accordance with the manufacturer's protocol (High-capacity reverse transcription kits, AB life technologies, Austin, Tex.). Real-time PCR was performed in 96-well plates using standard protocols with a fluorescent detection dye (SYBRR Green PCR Master Mix, AB life technologies, Austin, Tex.) in a real-time detection system (iCycler. Bio-Rad). All PCR reactions were a final volume of 20 μl comprised of fluorescent dye/PCR mix, final concentration 0.2 μM forward and reverse primers, and 1 ng of cDNA. The PCR cycle parameters were as follows: polymerase activation for 15 minutes at 90° C., 40 cycles of 95° C. for 15 seconds, 60° C. for 30 seconds and 72° C. for 1 minute. The quantity of mRNA was calculated by normalizing the CT of the β-actin housekeeping gene in the same sample, according to the following formula: The average β-actin CT (each multiplex PCR was performed in triplicate) was subtracted from the average target gene CT; the results represented the ΔCT. This ΔCT is specific and can be compared with the ΔCT of a calibration sample. The subtraction of control ΔCT from the ΔCT of the target gene is referred ΔΔCT. The relative quantification of expression of a target gene (in comparison with control) was determined by using 2^−ΔΔCT.
# [1] = Hypoxia-induced injury in HUVECs (MTT); type: cell-based; conditions: human, 1% O2, read-out: decrease of viability in hypoxic condition
# Procedure: (§1) MTT assay was used to measure the viability of ARPE-19 cells and HUVECs. 2×10^5 ARPE-19 cells or 5×10^4 HUVECs were seeded in 96-well plates ([…]) and allowed to grow overnight. Negative control was prepared by adding 100 μl medium without cells. The cells were then treated with fresh medium with COMPOUND I (0.03, 0.1, 0.3, 1, 3 and 10 μg/ml) and/or oxidants (NaIO3, H2O2, t-BHP and NaN3) for 12, 24, or 72 hours (200 μl/well). The vehicle control group was treated with vehicle. 20 μl MTT (5 mg/ml) was added to wells, and incubated for another 4 h. After incubation, the medium was discarded and 100 μl DMSO was added to solubilize formazan produced from MTT by the viable cells. Absorbance was measured at 570 nm using a microplate reader (Bio-Rad Laboratories, Inc., CA). Cells viability was calculated according to the following formula: Viability of cells (%)=(absorbance in tested sample−absorbance in negative control)/(absorbance in vehicle control−absorbance in negative control)×100%.
# Cells were allowed to attach overnight, and then exposed to COMPOUND I or vehicle under hypoxic condition for 72 h. Hypoxic conditions (1% O2, 5% CO2 and 94% N2) were maintained by using a temperature and humidity controlled environmental C-chamber by O2 and CO2 controllers (Proox Model 110 and Pro CO2 model 120, Biospherix Ltd., Redfield, N.Y., USA) with N2 and CO2 gas sources.
# HUVECs [2] = assay: H2O2-induced injury in HUVECs (MTT); type: cell-based, human; conditions: 10 μg/ml, 24 h
# Procedure: as §1
# HUVECs [3] = assay: MTT viability / proliferation of HUVECs; type: cell-based, human; conditions: 72 h
# Procedure: ARPE-19 cells were grown in DMEM/F12 medium supplemented with 10% FBS, 100 units/ml penicillin G, and 100 μg/ml streptomycin sulfate. HUVECs were grown in vascular cell basal medium supplemented with endothelial cell growth kit. Cells were incubated in a humidified incubator at 37° C. under 5% CO2 and 95% air.
# as §1
smiles,measurement,setting,value
COc1ccc(COc2c(/C=C/C(=O)NO)ccc(OC)c2CC=C(C)C)cc1 [COMPOUND I],"GFAP gene expression vs diabetic control group, in words",GFAP mRNA; 0.5% and 1%,significantly down-regulated
same,"mRNA expression of GFAP, DR animals as 100%",GFAP mRNA; 0.5% eye drops tid 6 weeks,60%
same,"mRNA expression of GFAP, DR animals as 100%",GFAP mRNA; 1% eye drops tid 6 weeks,51%
same,"cytotoxicity at 72 h, 10 μg/ml",[1],98%
same,enhancement of H2O2-induced injury,HUVECs [2]; 200 μM H2O2,41%
same,enhancement of H2O2-induced injury,HUVECs [2]; 400 μM H2O2,10%
same,effect on cell growth,HUVECs [3]; 0.03 μg/ml to 1 μg/ml,did not affect cell growth
same,inhibition at 10 µg/mL,"HUVECs [3]; Homo sapiens, HUVEC, 10 μg/ml",47%
